Assay results: US7776882B2, “2-amino-3,4-dihydro-quinoline derivatives useful as inhibitors of β-secretase (BACE)” (priority 2006, dated 2010)
“And” between values parts separate entries of the source, which are not always exact repeats. Identical values can stand only once. Like-named read-outs stand apart in the source and are kept apart here. Each block holds one compound with its values, some of them ahead of it.

Tests used:
Format in all cases: biochemical
β-secretase (BACE) [1] = target: T1, β-secretase (BACE) (Homo sapiens, UniProt P56817); test: In Vitro BACE FS1 % Inhibition Assay (Example 10); settings: FS1 substrate, values below about 25% (including negative) within noise; for % Inhibition (Example 10) @ 0.3 μM / inhibition at 0.3 µM: 0.3 μM compound; for % Inhibition (Example 10) @ 1 μM / inhibition at 1 µM: 1 μM compound; for % Inhibition (Example 10) @ 3 μM / inhibition at 3 µM: 3 μM compound
T1 construct: purchased Panvera
Description: (§1) The following assay buffers were prepared and used in this assay: (1) enzyme assay buffer (0.05 M sodium acetate, pH5, 0.1% PEG8000 (w/v)), (2) substrate assay buffer (0.05 M sodium acetate, pH5), and (3) compound vehicle (30% DMSO in 50 mM HEPES, pH 7.4).
(§2) The FS1-substrate stock solution was prepared in DMSO as a 10 mg/mL solution. The FS1-substrate working solution was prepared by diluting the 10 mg/mL stock solution with substrate assay buffer to a final concentration of 300 μg/mL. The β-secretase (BACE) working solution was prepared by diluting a 0.83 mg/mL BACE stock solution with enzyme assay buffer to a final concentration of 4 μg/mL.
Test compounds were dissolved in DMSO to 10 mM. Compounds were further diluted in vehicle to various concentrations in the range of 405 μM to 4.05 μM (13.5×final compound concentration in screening plate).
(§3) The screening procedure for this assay was as follows: 15 μL of BACE working solution was pipetted into each well of a 96-well plate. To each well was then pipetted 2 μL of test compound at the selected concentration. Test compound and BACE were then mixed with a pipettor and incubated for 20 min at room temperature. To each well was then added 10 μL of the FS1 substrate working solution. The plates were then incubated for 1 hour at room temperature. The fluorescence for each well was then measured on an LJL analyst (Ex 360 nm/Em 530 nm).
The procedure for the blank (negative control) was as follows. 15 μL of assay buffer was pipetted into each well to be used as a blank control. To each well was then added 2 μL of vehicle and 10 μL of FS1-substrate working solution. The plates were then incubated for 1 hour at room temperature. The fluorescence was measured on an LJL analyst (Ex 360 nm/Em 530 nm).
(§4) The procedure for the positive control was as follows: 15 μL of BACE working solution was pipetted into each well to be used as a positive control. To each well was then pipetted 2 μL of vehicle. Vehicle and BACE were then mixed with a pipettor and incubated for 20 min at room temperature. To each well was then added 10 μL of the FS1 substrate working solution. The plates were then incubated for 1 hour at room temperature. The fluorescence (Fl) was then measured on an LJL analyst (Ex 360 nm/Em 530 nm).
For test compounds, % inhibition was determined at each concentration as follows: […]

β-secretase (BACE) [2] = target: T1, β-secretase (BACE); test: In Vitro BACE Assay, Ki (Example 11); settings: FS1 substrate 50 μM, Km 24 μM
Description: The following reagents were used in this assay: sodium acetate, PEG8000 (Sigma), DMSO, HEPES, FS1 substrate [R(AedensE)[…]-(DabcylK)R], β-secretase (BACE) (Panvera), and 96-well plate (HE microplate, Molecular Devices).
as §1, §2
Test compounds were dissolved in DMSO at 10 mM.
as §3, with “The” for “The screening”, “The” for “The plates were then incubated for 1 hour at room temperature. The”, “a Polarstar fluorometer” for “an LJL analyst”, “390” for “360”, “520 nm) for 20 min at room temperature, reading fluorescence at 1 min intervals.” for “530 nm).”
as §4, with “The” for “The plates were then incubated for 1 hour at room temperature. The”, “fluorescence” for “fluorescence (Fl)”, “a Polarstar fluorometer” for “an LJL analyst”, “390” for “360”, “520 nm) for 20 min at room temperature, reading fluorescence at 1 min intervals.” for “530 nm).”
For test compounds, Ki inhibition was determined as follows: For each compound concentration and positive control, rate of cleavage of substrate (Vi, where i=compound concentration in μM) was determined as Δ Fluorescence/Δ time (min). Cleavage rates (Vi) were plotted as a function of inhibitor concentration in μM [I]. The Ki was then determined by fitting the following equation to the graph of [I] vs Vi Y=aVmax/(50+24*(1+X/Ki)),

human BACE-1 = target: T2, human BACE-1 (Homo sapiens, UniProt P56817); test: In Vitro BACE Assay run by CEREP (Example 14); settings: recombinant enzyme, 60 min at 37° C., pH 4.5; for inhibition at 1 µM / % Inhibition 1 μM: 1 μM compound
T2 construct: purchased CEREP (contract assay) 761-B
Description: This assay was run by CEREP (Catalog Ref. 761-B, Referred to SOP No. 1C131; ERMOLIEFF, J., LOY, J. A., KOELSCH, G. and TANG, J., Proteolytic activation of recombinant pro-memapsin 2 (pro-BACE) studied with new fluorogenic substrates, Biochemistry, (2000) Vol. 39, p. 12450).
More specifically the assay, run at 50 μL in a 96 well plate, evaluated the effect of test compound on the activity of the human BACE-1 quantified by measuring the formation of Mca-S-E-V-N-L-NH2 from Mca-S-E-V-N-L-D-A-E-F-R-K(Dnp)-R-R-NH2, using a recombinant enzyme.
The test compound, reference compound or water (control) was added to a buffer containing 0.09 M sodium acetate (pH 4.5) and 0.25 μg BACE-1. Compound interference with the fluorimetric detection method due to autofluorescence was then checked by measurements at the wavelengths defined to evaluate the enzyme activity. Thereafter, the reaction was initiated by adding 7.5 μM of the substrate Mca-S-E-V-N-L-D-A-E-F-R-K(Dnp)-R-R-NH2 and the mixture was incubated for 60 min at 37° C. For control basal measurement, the substrate was omitted from the reaction mixture. Immediately after the incubation, the fluorescence intensity emitted by the reaction product Mca-S-E-V-N-L-NH2 was measured at λex=320 nm and λem=405 nm using a microplate reader (Ultra, Tecan). The standard inhibitory reference compound was OM99-2, which was tested in each experiment at several concentrations to obtain an inhibition curve from which its IC50 value was calculated.

T1 sequence (P56817 46-501): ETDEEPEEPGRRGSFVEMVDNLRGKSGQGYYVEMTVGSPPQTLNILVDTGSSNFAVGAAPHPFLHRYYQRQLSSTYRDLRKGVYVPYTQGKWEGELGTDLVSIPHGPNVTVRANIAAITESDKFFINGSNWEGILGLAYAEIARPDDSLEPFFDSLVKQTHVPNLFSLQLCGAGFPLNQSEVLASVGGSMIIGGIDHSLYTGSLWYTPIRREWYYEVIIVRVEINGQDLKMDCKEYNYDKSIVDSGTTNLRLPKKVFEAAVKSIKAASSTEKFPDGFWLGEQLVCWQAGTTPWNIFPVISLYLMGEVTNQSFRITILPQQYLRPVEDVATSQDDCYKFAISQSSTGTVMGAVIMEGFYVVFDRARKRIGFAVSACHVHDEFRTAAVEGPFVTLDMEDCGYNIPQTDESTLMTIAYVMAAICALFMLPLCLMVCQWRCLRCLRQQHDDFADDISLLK
T2 sequence (P56817 46-501): as above

SMILES: Nc1nc2ccc(Oc3ccccc3)cc2cc1CCC(=O)NC12CC3CC(CC(C3)C1)C2 [compound 2]
% Inhibition (Example 10) @ 0.3 μM (β-secretase (BACE) [1]): 45%
% Inhibition (Example 10) @ 1 μM (β-secretase (BACE) [1]): 78%
% Inhibition (Example 10) @ 3 μM (β-secretase (BACE) [1]): 107%
Ki (β-secretase (BACE) [2]; read-out: Ki (μM) (Example 11)): 0.23 µM

SMILES: CC1CCCC(NC(=O)CCc2cc3cc(Oc4ccccc4)ccc3nc2N)C1 (centres unmarked) [compound 3]
inhibition at 0.3 µM (β-secretase (BACE) [1]): 58%
inhibition at 1 µM (β-secretase (BACE) [1]): 89%
inhibition at 3 µM (β-secretase (BACE) [1]): 115%
Ki (β-secretase (BACE) [2]; Ki (μM) (Example 11)): 0.49 µM

SMILES: CC(C)=CCCC(C)=CCNC(=O)CCc1cc2cc(Oc3ccccc3)ccc2nc1N [compound 13]
inhibition at 0.3 µM (β-secretase (BACE) [1]): 2%
inhibition at 1 µM (β-secretase (BACE) [1]): 42%
inhibition at 3 µM (β-secretase (BACE) [1]): 88%
Ki (β-secretase (BACE) [2]; Ki (μM) (Example 11)): 0.64 µM

SMILES: Nc1nc2ccc(Oc3ccccc3)cc2cc1C(CCC(=O)NC12CC3CC(CC(C3)C1)C2)C1CCCCC1 (centres unmarked) [compound 15]
% Inhibition (Example 10) @ 0.3 μM (β-secretase (BACE) [1]): 43%
% Inhibition (Example 10) @ 1 μM (β-secretase (BACE) [1]): 58%
% Inhibition (Example 10) @ 3 μM (β-secretase (BACE) [1]): 78%
Ki (β-secretase (BACE) [2]; read-out: Ki (μM) (Example 11)): 0.28 µM

SMILES: CN(C(=O)CCC(c1cc2cc(Oc3ccccc3)ccc2nc1N)C1CCCCC1)C1CCCCC1 (centres unmarked) [compound 16]
inhibition at 0.3 µM (β-secretase (BACE) [1]): 29%
inhibition at 1 µM (β-secretase (BACE) [1]): 27%
inhibition at 3 µM (β-secretase (BACE) [1]): 78%
Ki (β-secretase (BACE) [2]; Ki (μM) (Example 11)): 0.44 µM
inhibition at 0.3 µM (human BACE-1; 0.3 μM compound): 15%
inhibition at 1 µM (human BACE-1): 46%
IC50 (human BACE-1): 700 nM

SMILES: CN(C(=O)CCC(c1cc2cc(Oc3ccccc3)ccc2nc1N)C1CCOCC1)C1CCCCC1 (centres unmarked) [compound 23]
% Inhibition (Example 10) @ 0.3 μM (β-secretase (BACE) [1]; 0.3 µM): 34% and 64%
inhibition at 1 µM (β-secretase (BACE) [1]): 88%
% Inhibition (Example 10) @ 1 μM (β-secretase (BACE) [1]; 1 µM): 93%
inhibition at 3 µM (β-secretase (BACE) [1]): 127%
% Inhibition (Example 10) @ 3 μM (β-secretase (BACE) [1]; 3 µM): 125%
Ki (β-secretase (BACE) [2]; Ki (μM) (Example 11)): 0.12 µM and 0.31 µM
inhibition at 1 µM (human BACE-1): 78%
IC50 (human BACE-1): 420 nM

SMILES: Nc1nc2ccc(Oc3ccccc3)cc2cc1C(CCC(=O)NC12CC3CC(CC(C3)C1)C2)C1CCOCC1 (centres unmarked) [compound 24]
% Inhibition (Example 10) @ 0.3 μM (β-secretase (BACE) [1]): 56%
% Inhibition (Example 10) @ 1 μM (β-secretase (BACE) [1]): 103%
% Inhibition (Example 10) @ 3 μM (β-secretase (BACE) [1]): 132%
Ki (β-secretase (BACE) [2]; read-out: Ki (μM) (Example 11)): 0.066 µM

SMILES: CN(C(=O)CC[C@H](c1cc2cc(Oc3ccccc3)ccc2nc1N)C1CCOCC1)C1CCCCC1 [compound 25]
inhibition at 0.3 µM (β-secretase (BACE) [1]): 83%
inhibition at 1 µM (β-secretase (BACE) [1]): 114%
inhibition at 3 µM (β-secretase (BACE) [1]): 126%
Ki (β-secretase (BACE) [2]; Ki (μM) (Example 11)): 0.16 µM

SMILES: Nc1nc2ccc(Oc3ccccc3)cc2cc1C(CCC(=O)N(Cc1ccccn1)C1CCCCC1)C1CCOCC1 (centres unmarked) [compound 60]
inhibition at 1 µM (human BACE-1): 83%
IC50 (human BACE-1): 320 nM

Next, values leading:

% Inhibition 1 μM (human BACE-1): 15%
SMILES: CN(CCC(c1cc2cc(Oc3ccccc3)ccc2nc1N)C1CCCCC1)C1CCCCC1 (centres unmarked) [compound 61]

inhibition at 1 µM (human BACE-1): 83%
IC50 (human BACE-1): 190 nM
SMILES: Nc1nc2ccc(Oc3ccccc3)cc2cc1C(CCC(=O)N(CN1CCCC1)C1CCCCC1)C1CCOCC1 (centres unmarked) [compound 64]

inhibition at 1 µM (human BACE-1): 69%
IC50 (human BACE-1): 850 nM
SMILES: Nc1nc2ccc(Oc3ccccc3)cc2cc1C(CCC(=O)N(CCN1CCOCC1)C1CCCCC1)C1CCOCC1 (centres unmarked) [compound 65]

inhibition at 1 µM (human BACE-1): 86%
IC50 (human BACE-1): 470 nM
SMILES: CC(C)(C)OCCN(C(=O)CCC(c1cc2cc(Oc3ccccc3)ccc2nc1N)C1CCOCC1)C1CCCCC1 (centres unmarked) [compound 66]

inhibition at 1 µM (human BACE-1): 90%
IC50 (human BACE-1): 410 nM
SMILES: Nc1nc2ccc(Oc3ccccc3)cc2cc1C(CCC(=O)N(CC1CC1)C1CCCCC1)C1CCOCC1 (centres unmarked) [compound 67]

inhibition at 1 µM (human BACE-1): 41%
IC50 (human BACE-1): 1500 nM
SMILES: Nc1nc2ccc(Oc3ccccc3)cc2cc1C(CCC(=O)N(CCO)CC1CC1)C1CCOCC1 (centres unmarked) [compound 68]

inhibition at 1 µM (human BACE-1): 69%
IC50 (human BACE-1): 670 nM
SMILES: CC(C)(C)CN(Cc1ccccn1)C(=O)CCC(c1cc2cc(Oc3ccccc3)ccc2nc1N)C1CCOCC1 (centres unmarked) [compound 69]

% Inhibition 1 μM (human BACE-1; 1 µM): 10%
SMILES: Cn1ccnc1CN(CCC(C)(C)C)C(=O)CCC(c1cc2cc(Oc3ccccc3)ccc2nc1N)C1CCCCC1 (centres unmarked) [compound 70]

% Inhibition 1 μM (human BACE-1; 1 µM): 73%
SMILES: Cn1ccnc1CN(CCC(C)(C)C)C(=O)CCC(c1cc2cc(Oc3ccccc3)ccc2nc1N)C1CCCCC1 (centres unmarked) [compound 71]

% Inhibition 1 μM (human BACE-1; 1 µM): 81%
SMILES: Cn1ccnc1CN(CCC(C)(C)C)C(=O)CCC(c1cc2cc(Oc3ccccc3)ccc2nc1N)C1CCCCC1 (centres unmarked) [compound 72]

% Inhibition 0.3 μM (human BACE-1; 0.3 μM compound): 11%
% Inhibition 1 μM (human BACE-1): −3%
SMILES: C=CCCC(c1cc2cc(Oc3ccccc3)ccc2nc1N)C1CCCCC1 (centres unmarked) [compound 509]
